≈ marks a conversion by molar mass, not a printed value.
Assays:
Assay type in all cases: functional
[1] = test system: Mycobacterium tuberculosis; assay: Antimycobacterial activity against Mycobacterium tuberculosis H37Rv ATCC 27294 by MABA method
Escherichia coli [2] = assay: Antibacterial activity against Escherichia coli ATCC 25922 after 18 to 24 hrs by standard twofold serial dilution method
Escherichia coli [3] = assay: Antibacterial activity against Escherichia coli 12-1 after 18 to 24 hrs by standard twofold serial dilution method
Escherichia coli [4] = assay: Antibacterial activity against extended-spectrum beta-lactamase producing Escherichia coli 12-2 after 18 to 24 hrs by standard twofold serial dilution method
Escherichia coli [5] = assay: Antibacterial activity against extended-spectrum beta-lactamase producing Escherichia coli 12-3 after 18 to 24 hrs by standard twofold serial dilution method
Escherichia coli [6] = assay: Antibacterial activity against extended-spectrum beta-lactamase producing Escherichia coli 12-14 after 18 to 24 hrs by standard twofold serial dilution method
Escherichia coli [7] = assay: Antibacterial activity against extended-spectrum beta-lactamase producing Escherichia coli 12-15 after 18 to 24 hrs by standard twofold serial dilution method
Klebsiella pneumoniae [8] = assay: Antibacterial activity against Klebsiella pneumoniae 12-1 after 18 to 24 hrs by standard twofold serial dilution method
Klebsiella pneumoniae [9] = assay: Antibacterial activity against Klebsiella pneumoniae 12-2 after 18 to 24 hrs by standard twofold serial dilution method
Klebsiella pneumoniae [10] = assay: Antibacterial activity against Klebsiella pneumoniae 12-4 after 18 to 24 hrs by standard twofold serial dilution method
Klebsiella pneumoniae [11] = assay: Antibacterial activity against extended-spectrum beta-lactamase producin Klebsiella pneumoniae 12-3 after 18 to 24 hrs by standard twofold serial dilution method
Klebsiella pneumoniae [12] = assay: Antibacterial activity against extended-spectrum beta-lactamase producin Klebsiella pneumoniae 12-4 after 18 to 24 hrs by standard twofold serial dilution method
Klebsiella pneumoniae [13] = assay: Antibacterial activity against extended-spectrum beta-lactamase producin Klebsiella pneumoniae 12-7 after 18 to 24 hrs by standard twofold serial dilution method
Klebsiella pneumoniae [14] = assay: Antibacterial activity against extended-spectrum beta-lactamase producin Klebsiella pneumoniae 12-14 after 18 to 24 hrs by standard twofold serial dilution method
Pseudomonas aeruginosa [15] = assay: Antibacterial activity against Pseudomonas aeruginosa 12-12 after 18 to 24 hrs by standard twofold serial dilution method
Pseudomonas aeruginosa [16] = assay: Antibacterial activity against Pseudomonas aeruginosa 12-14 after 18 to 24 hrs by standard twofold serial dilution method
Staphylococcus aureus [17] = assay: Antibacterial activity against Staphylococcus aureus ATCC 25923 after 18 to 24 hrs by standard twofold serial dilution method
Staphylococcus aureus [18] = assay: Antibacterial activity against methicillin-sensitive Staphylococcus aureus 12-1 after 18 to 24 hrs by standard twofold serial dilution method
Staphylococcus aureus [19] = assay: Antibacterial activity against methicillin-sensitive Staphylococcus aureus 12-2 after 18 to 24 hrs by standard twofold serial dilution method
Staphylococcus aureus [20] = assay: Antibacterial activity against methicillin-sensitive Staphylococcus aureus 12-4 after 18 to 24 hrs by standard twofold serial dilution method
Staphylococcus aureus [21] = assay: Antibacterial activity against methicillin-sensitive Staphylococcus aureus 12-5 after 18 to 24 hrs by standard twofold serial dilution method
Staphylococcus aureus [22] = assay: Antibacterial activity against methicillin-resistant Staphylococcus aureus 12-2 after 18 to 24 hrs by standard twofold serial dilution method
Staphylococcus aureus [23] = assay: Antibacterial activity against methicillin-resistant Staphylococcus aureus 12-4 after 18 to 24 hrs by standard twofold serial dilution method
Staphylococcus aureus [24] = assay: Antibacterial activity against methicillin-resistant Staphylococcus aureus 12-5 after 18 to 24 hrs by standard twofold serial dilution method
[25] = test system: Staphylococcus epidermidis; assay: Antibacterial activity against methicillin-sensitive Staphylococcus epidermidis 12-1 after 18 to 24 hrs by standard twofold serial dilution method
[26] = test system: Staphylococcus epidermidis; assay: Antibacterial activity against methicillin-sensitive Staphylococcus epidermidis 12-3 after 18 to 24 hrs by standard twofold serial dilution method
[27] = test system: Staphylococcus epidermidis; assay: Antibacterial activity against methicillin-sensitive Staphylococcus epidermidis 12-6 after 18 to 24 hrs by standard twofold serial dilution method
[28] = test system: Staphylococcus epidermidis; assay: Antibacterial activity against methicillin-sensitive Staphylococcus epidermidis 12-8 after 18 to 24 hrs by standard twofold serial dilution method
[29] = test system: Staphylococcus epidermidis; assay: Antibacterial activity against methicillin-resistant Staphylococcus epidermidis 12-1 after 18 to 24 hrs by standard twofold serial dilution method
[30] = test system: Staphylococcus epidermidis; assay: Antibacterial activity against methicillin-resistant Staphylococcus epidermidis 12-6 after 18 to 24 hrs by standard twofold serial dilution method
Streptococcus pneumoniae [31] = assay: Antibacterial activity against Streptococcus pneumoniae ATCC 49619 after 18 to 24 hrs by standard twofold serial dilution method
Streptococcus pneumoniae [32] = assay: Antibacterial activity against Streptococcus pneumoniae 12-18 after 18 to 24 hrs by standard twofold serial dilution method

Q: What does the source list for CCO/N=C1/CN(c2cc3c(cc2F)c(=O)c(C(=O)O)cn3[C@@H]2C[C@@H]2F)[C@@H]1CN?
A: MIC [1]: 2 µg/mL (≈ 4.92 µM); MIC (Escherichia coli [2]): 0.06 µg/mL (≈ 0.148 µM); MIC (Escherichia coli [3]): 0.25 µg/mL (≈ 0.615 µM); MIC (Escherichia coli [4]): 128 µg/mL (≈ 315 µM); MIC (Escherichia coli [5]): 16 µg/mL (≈ 39.4 µM); MIC (Escherichia coli [6]): 64 µg/mL (≈ 157 µM); MIC (Escherichia coli [7]): > 128 µg/mL; MIC (Klebsiella pneumoniae [8]): 0.25 µg/mL (≈ 0.615 µM); MIC (Klebsiella pneumoniae [9]): 0.25 µg/mL (≈ 0.615 µM); MIC (Klebsiella pneumoniae [10]): 0.25 µg/mL (≈ 0.615 µM); MIC (Klebsiella pneumoniae [11]): 64 µg/mL (≈ 157 µM); MIC (Klebsiella pneumoniae [12]): 16 µg/mL (≈ 39.4 µM); MIC (Klebsiella pneumoniae [13]): 1 µg/mL (≈ 2.46 µM); MIC (Klebsiella pneumoniae [14]): 64 µg/mL (≈ 157 µM); MIC (Pseudomonas aeruginosa [15]): 1 µg/mL (≈ 2.46 µM); MIC (Pseudomonas aeruginosa [16]): 32 µg/mL (≈ 78.7 µM); MIC (Staphylococcus aureus [17]): < 0.008 µg/mL; MIC (Staphylococcus aureus [18]): 0.06 µg/mL (≈ 0.148 µM); MIC (Staphylococcus aureus [19]): 0.06 µg/mL (≈ 0.148 µM); MIC (Staphylococcus aureus [20]): 0.03 µg/mL (≈ 0.0738 µM); MIC (Staphylococcus aureus [21]): 0.03 µg/mL (≈ 0.0738 µM); MIC (Staphylococcus aureus [22]): 32 µg/mL (≈ 78.7 µM); MIC (Staphylococcus aureus [23]): 32 µg/mL (≈ 78.7 µM); MIC (Staphylococcus aureus [24]): 32 µg/mL (≈ 78.7 µM); MIC [25]: 0.06 µg/mL (≈ 0.148 µM); MIC [26]: 0.125 µg/mL (≈ 0.308 µM); MIC [27]: 0.06 µg/mL (≈ 0.148 µM); MIC [28]: 4 µg/mL (≈ 9.84 µM); MIC [29]: 8 µg/mL (≈ 19.7 µM); MIC [30]: 64 µg/mL (≈ 157 µM); MIC (Streptococcus pneumoniae [31]): 0.25 µg/mL (≈ 0.615 µM); MIC (Streptococcus pneumoniae [32]): 1 µg/mL (≈ 2.46 µM)

Q: NC[C@@H]1/C(=N\OCc2ccccc2)CN1c1cc2c(cc1F)c(=O)c(C(=O)O)cn2[C@@H]1C[C@@H]1F was tested. Which MIC [1] did it give?
A: 8 µg/mL (≈ 17.1 µM)

Q: What about the MIC (Escherichia coli [2]) of the same compound?
A: 0.25 µg/mL (≈ 0.534 µM)

Q: What about the MIC (Escherichia coli [3]) of the same compound?
A: 8 µg/mL (≈ 17.1 µM)

Q: What about the MIC (Escherichia coli [4]) of the same compound?
A: > 128 µg/mL

Q: What about the MIC (Escherichia coli [5]) of the same compound?
A: 16 µg/mL (≈ 34.2 µM)

Q: And the MIC (Escherichia coli [6])?
A: 128 µg/mL (≈ 273 µM)

Q: And the MIC (Escherichia coli [7])?
A: > 128 µg/mL

Q: What about the MIC (Klebsiella pneumoniae [8]) of the same compound?
A: 0.5 µg/mL (≈ 1.07 µM)

Q: And the MIC (Klebsiella pneumoniae [9])?
A: 0.5 µg/mL (≈ 1.07 µM)

Q: What about the MIC (Klebsiella pneumoniae [10]) of the same compound?
A: 0.5 µg/mL (≈ 1.07 µM)

Q: What about the MIC (Klebsiella pneumoniae [11]) of the same compound?
A: 128 µg/mL (≈ 273 µM)

Q: And the MIC (Klebsiella pneumoniae [12])?
A: 16 µg/mL (≈ 34.2 µM)

Q: What about the MIC (Klebsiella pneumoniae [13]) of the same compound?
A: 2 µg/mL (≈ 4.27 µM)

Q: And the MIC (Klebsiella pneumoniae [14])?
A: 128 µg/mL (≈ 273 µM)

Q: What about the MIC (Pseudomonas aeruginosa [15]) of the same compound?
A: 2 µg/mL (≈ 4.27 µM)

Q: What about the MIC (Pseudomonas aeruginosa [16]) of the same compound?
A: 32 µg/mL (≈ 68.3 µM)

Q: What about the MIC (Staphylococcus aureus [17]) of the same compound?
A: 0.25 µg/mL (≈ 0.534 µM)

Q: And the MIC (Staphylococcus aureus [18])?
A: 1 µg/mL (≈ 2.13 µM)

Q: And the MIC (Staphylococcus aureus [19])?
A: 1 µg/mL (≈ 2.13 µM)

Q: And the MIC (Staphylococcus aureus [20])?
A: 1 µg/mL (≈ 2.13 µM)

Q: What about the MIC (Staphylococcus aureus [21]) of the same compound?
A: 1 µg/mL (≈ 2.13 µM)

Q: And the MIC (Staphylococcus aureus [22])?
A: > 128 µg/mL

Q: What about the MIC (Staphylococcus aureus [23]) of the same compound?
A: > 128 µg/mL

Q: What about the MIC (Staphylococcus aureus [24]) of the same compound?
A: 128 µg/mL (≈ 273 µM)

Q: And the MIC [25]?
A: 1 µg/mL (≈ 2.13 µM)

Q: And the MIC [26]?
A: 2 µg/mL (≈ 4.27 µM)

Q: What about the MIC [27] of the same compound?
A: 1 µg/mL (≈ 2.13 µM)

Q: And the MIC [28]?
A: 2 µg/mL (≈ 4.27 µM)

Q: And the MIC [29]?
A: 32 µg/mL (≈ 68.3 µM)

Q: And the MIC [30]?
A: 8 µg/mL (≈ 17.1 µM)

Q: And the MIC (Streptococcus pneumoniae [31])?
A: 0.5 µg/mL (≈ 1.07 µM)

Q: What about the MIC (Streptococcus pneumoniae [32]) of the same compound?
A: 8 µg/mL (≈ 17.1 µM)

Q: For CO/N=C1/CCN(c2c(F)cc3c(=O)c(C(=O)O)cn([C@@H]4C[C@@H]4F)c3c2Cl)CC1N (stereo partly specified), which MIC [1] is on record?
A: 16 µg/mL (≈ 36.3 µM)

Q: And the MIC (Escherichia coli [2])?
A: 1 µg/mL (≈ 2.27 µM)

Q: What about the MIC (Escherichia coli [3]) of the same compound?
A: 2 µg/mL (≈ 4.54 µM)

Q: And the MIC (Escherichia coli [4])?
A: > 128 µg/mL

Q: What about the MIC (Escherichia coli [5]) of the same compound?
A: 32 µg/mL (≈ 72.6 µM)

Q: What about the MIC (Escherichia coli [6]) of the same compound?
A: > 128 µg/mL

Q: What about the MIC (Escherichia coli [7]) of the same compound?
A: > 128 µg/mL

Q: And the MIC (Klebsiella pneumoniae [8])?
A: 2 µg/mL (≈ 4.54 µM)

Q: And the MIC (Klebsiella pneumoniae [9])?
A: 2 µg/mL (≈ 4.54 µM)

Q: What about the MIC (Klebsiella pneumoniae [10]) of the same compound?
A: 1 µg/mL (≈ 2.27 µM)

Q: What about the MIC (Klebsiella pneumoniae [11]) of the same compound?
A: > 128 µg/mL

Q: What about the MIC (Klebsiella pneumoniae [12]) of the same compound?
A: 32 µg/mL (≈ 72.6 µM)

Q: And the MIC (Klebsiella pneumoniae [13])?
A: 16 µg/mL (≈ 36.3 µM)

Q: And the MIC (Klebsiella pneumoniae [14])?
A: > 128 µg/mL

Q: And the MIC (Pseudomonas aeruginosa [15])?
A: 16 µg/mL (≈ 36.3 µM)

Q: What about the MIC (Pseudomonas aeruginosa [16]) of the same compound?
A: 128 µg/mL (≈ 290 µM)

Q: And the MIC (Staphylococcus aureus [17])?
A: 1 µg/mL (≈ 2.27 µM)

Q: What about the MIC (Staphylococcus aureus [18]) of the same compound?
A: 0.25 µg/mL (≈ 0.567 µM)

Q: What about the MIC (Staphylococcus aureus [19]) of the same compound?
A: 0.25 µg/mL (≈ 0.567 µM)

Q: And the MIC (Staphylococcus aureus [20])?
A: 0.25 µg/mL (≈ 0.567 µM)

Q: What about the MIC (Staphylococcus aureus [21]) of the same compound?
A: 0.25 µg/mL (≈ 0.567 µM)

Q: What about the MIC (Staphylococcus aureus [22]) of the same compound?
A: 32 µg/mL (≈ 72.6 µM)

Q: And the MIC (Staphylococcus aureus [23])?
A: 64 µg/mL (≈ 145 µM)

Q: What about the MIC (Staphylococcus aureus [24]) of the same compound?
A: 32 µg/mL (≈ 72.6 µM)

Q: And the MIC [25]?
A: 0.5 µg/mL (≈ 1.13 µM)

Q: What about the MIC [26] of the same compound?
A: 1 µg/mL (≈ 2.27 µM)

Q: And the MIC [27]?
A: 0.5 µg/mL (≈ 1.13 µM)

Q: And the MIC [28]?
A: 4 µg/mL (≈ 9.07 µM)

Q: And the MIC [29]?
A: 16 µg/mL (≈ 36.3 µM)

Q: What about the MIC [30] of the same compound?
A: 32 µg/mL (≈ 72.6 µM)

Q: What about the MIC (Streptococcus pneumoniae [31]) of the same compound?
A: 1 µg/mL (≈ 2.27 µM)

Q: What about the MIC (Streptococcus pneumoniae [32]) of the same compound?
A: 8 µg/mL (≈ 18.1 µM)
